Where two headings read alike, the source gives them in different places. *1 amine or outer side, *2 acyl side, *3 side chain or, on linkers, in order; H or OH if unused. Where a SMILES comes first, the peptide text is derived from it. Bridges are numbered along the chain shown (N, C = ends). [ ]: non-standard residue; d: D form. The star is where a group is joined. X101 = CN([C@@H](Cc1cc(Cl)ccc1-c1cnn(C2CS(=O)(=O)C2)c1)C(=O)[*:2])[*:1]; X72 = CN([C@@H](Cc1cc(Cl)ccc1-c1cnn(C2CCS(=O)(=O)C2)c1)C(=O)[*:2])[*:1]; X13 = CN([C@@H](Cc1cc(Cl)ccc1-c1cnn(CCS(C)(=O)=O)c1)C(=O)[*:2])[*:1]; X55 = CN([C@@H](Cc1cc(Cl)ccc1-c1cnn(CCN2CCOCC2)c1)C(=O)[*:2])[*:1]; X82 = CN([C@@H](Cc1cc(Cl)ccc1-c1cnn(S(C)(=O)=O)c1)C(=O)[*:2])[*:1]; X16 = CN([C@@H](Cc1cc(Cl)ccc1-c1cnc2c(cnn2C)c1)C(=O)[*:2])[*:1]; X30 = CN([C@@H](Cc1cc(Cl)ccc1-c1ccc2c(c1)ncn2C)C(=O)[*:2])[*:1]; X99 = CC(=O)N1CCC(Oc2ccc(Cl)cc2C[C@@H](C(=O)[*:2])N(C)[*:1])CC1; X111 = CN([C@@H](Cc1cc(Cl)ccc1-c1nnc(C2CC2)o1)C(=O)[*:2])[*:1]; X113 = Cc1cc(-c2ccc(Cl)cc2C[C@@H](C(=O)[*:2])N(C)[*:1])n(C)n1; X19 = CN([C@@H](Cc1cc(Cl)ccc1-c1ccn2ccnc2c1)C(=O)[*:2])[*:1]; NMehhhLys(Me) = CN([C@@H](CCCCCCCN(C)[*:3])C(=O)[*:2])[*:1]; X67 = Cc1c(-c2ccc(Cl)cc2C[C@@H](C(=O)[*:2])N(C)[*:1])cnn1C; X64 = CN([C@@H](Cc1cc(Cl)ccc1OC1(C)CC1)C(=O)[*:2])[*:1]; cBuCO(3,3-F2-1-CF3) = O=C(C1(C(F)(F)F)CC(F)(F)C1)*; Pro(trans-4-F) = O=C(O)[C@@H]1C[C@@H](F)CN1; Gly(cPr) = N[C@H](C(=O)O)C1CC1
Key:
NCI-H1048 cells = assay: MTT proliferation assay, NCI-H1048; format: cell-based; conditions: 5 days compound exposure, 1:3 serial dilution starting at 10 μM;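 further: Dose-response in 96-well plates over 8 or 10 concentration points, with exposure spanning 3-4 cell doublings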
OVCAR3 cells = assay: MTT proliferation assay, OVCAR3; format: cell-based; conditions: 5 days compound exposure, 1:3 serial dilution starting at 10 μM;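 further: compound given as an 8- or 10-point series, one day after plating, with exposure covering roughly 3-4 cell doublings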
WI-38 cells = assay: MTT proliferation assay, WI-38; format: cell-based; conditions: 3 days compound exposure, 1:3 serial dilution starting at 10 μM;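 further: Eight- or ten-point dilution series, with exposure length chosen to span about three to four cell doublings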
CyclinE1/CDK2 = molecular target: T1, CyclinE1/CDK2 (Homo sapiens, UniProt P24864); assay: Fluorescence Polarization (FP) competitive binding assay, Cyclin E1/Cdk2;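 further: readings taken after two-hour equilibration at room temperature in HEPES buffer with NaCl, DTT, NP-40 and BSA, IC50 fitted from eight-concentration serial dilution series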
T1 construct: purchased Eurofins, discovery 14-475

CyclinB1/CDK1 = molecular target: T2, CyclinB1/CDK1 (Homo sapiens, UniProt P14635); assay: Fluorescence Polarization (FP) competitive binding assay, Cyclin B1/Cdk1;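 further: fluorescence polarization read after equilibration at room temperature, with IC50 taken from serially diluted dose-response curves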
T2 construct: purchased Eurofins, discovery 14-450

CyclinA2/CDK2 = molecular target: T3, CyclinA2/CDK2 (Homo sapiens, UniProt P20248); assay: Fluorescence Polarization (FP) competitive binding assay, Cyclin A2/Cdk2;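 further: plates equilibrated two hours at room temperature before polarization reading, IC50 fitted from eight-concentration compound titration curves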
T3 construct: purchased CRELUX Protein Services

[1] = read-out: Cyclin B FP IC50; 10 nM Cyclin B1/Cdk1, 2 nM FAM probe; average of 2-3 independent experiments
[2] = 10 nM Cyclin E1/Cdk2, 2 nM FAM probe, average of 2-3 independent experiments, read-out: Cyclin E FP IC50
[3] = 10 nM Cyclin B1/Cdk1, 2 nM FAM probe; average of 2-3 independent experiments; read-out: Cyclin B FP IC50
[4] = 8 nM Cyclin A2/Cdk2, 2 nM FAM probe, average of 2-3 independent experiments, read-out: Cyclin A FP IC50

| Structure (SMILES) | GI50 (NCI-H1048 cells) [nM] | GI50 (OVCAR3 cells) [nM] | GI50 (WI-38 cells) [nM] | IC50 (CyclinE1/CDK2) [nM] | IC50 (CyclinB1/CDK1; [1]) [nM] | IC50 (CyclinA2/CDK2) [nM] | IC50 (CyclinE1/CDK2; [2]) [nM] | IC50 (CyclinB1/CDK1; [3]) [nM] | IC50 (CyclinA2/CDK2; [4]) [nM] | IC50 (CyclinA2/CDK2; read-out: Cyclin A FP IC50, 8 nM Cyclin A2/Cdk2, 2 nM FAM probe, average of 2-3 independent experiments) [nM] |
| --- | --- | --- | --- | --- | --- | --- | --- | --- | --- | --- |
| Cc1c(-c2ccc(Cl)cc2C[C@H]2C(=O)N(C)CCCCCCC[C@H](N(C)C(=O)[C@@H](NC(=O)[C@@H]3C[C@@H](F)CN3C(=O)C3(C(F)(F)F)CC(F)(F)C3)C3CC3)C(=O)N[C@@H](CC(C)C)C(=O)N2C)cnn1C [Example 234] ({cBuCO(3,3-F2-1-CF3)}-[Pro(trans-4-F)][Gly(cPr)][NMehhhLys(Me)]L[X67]; lactam 3-C) | 10 | 10 | 10700 | 830 | 20 | 30 |  |  |  |  |
| Cc1cc(-c2ccc(Cl)cc2C[C@H]2C(=O)N(C)CCCCCCC[C@H](N(C)C(=O)[C@@H](NC(=O)[C@@H]3C[C@@H](F)CN3C(=O)C3(C(F)(F)F)CC(F)(F)C3)C3CC3)C(=O)N[C@@H](CC(C)C)C(=O)N2C)n(C)n1 [Example 235] ({cBuCO(3,3-F2-1-CF3)}-[Pro(trans-4-F)][Gly(cPr)][NMehhhLys(Me)]L[X113]; lactam 3-C) | 100 | 90 | 13200 | 6080 | 20 | 140 |  |  |  |  |
| CC(C)C[C@@H]1NC(=O)[C@@H](N(C)C(=O)[C@@H](NC(=O)[C@@H]2C[C@@H](F)CN2C(=O)C2(C(F)(F)F)CC(F)(F)C2)C2CC2)CCCCCCCN(C)C(=O)[C@H](Cc2cc(Cl)ccc2-c2ccn3ccnc3c2)N(C)C1=O [Example 236] ({cBuCO(3,3-F2-1-CF3)}-[Pro(trans-4-F)][Gly(cPr)][NMehhhLys(Me)]L[X19]; lactam 3-C) | 10 | 20 | 7330 |  |  |  | 780 | 20 | 30 |  |
| CC(C)C[C@@H]1NC(=O)[C@@H](N(C)C(=O)[C@@H](NC(=O)[C@@H]2C[C@@H](F)CN2C(=O)C2(C(F)(F)F)CC(F)(F)C2)C2CC2)CCCCCCCN(C)C(=O)[C@H](Cc2cc(Cl)ccc2-c2cnn(S(C)(=O)=O)c2)N(C)C1=O [Example 238] ({cBuCO(3,3-F2-1-CF3)}-[Pro(trans-4-F)][Gly(cPr)][NMehhhLys(Me)]L[X82]; lactam 3-C) | 10 | 20 | 17300 | 990 | 20 | 30 |  |  |  |  |
| [2H]C([2H])([2H])n1cc(-c2ccc(Cl)cc2C[C@H]2C(=O)N(C)CCCCCCC[C@H](N(C)C(=O)[C@@H](NC(=O)[C@@H]3C[C@@H](F)CN3C(=O)C3(C(F)(F)F)CC(F)(F)C3)C3CC3)C(=O)N[C@@H](CC(C)C)C(=O)N2C)cn1 [Example 239] | 20 | 20 | 14300 |  |  |  | 420 | 20 | 20 |  |
| CC(C)C[C@@H]1NC(=O)[C@@H](N(C)C(=O)[C@@H](NC(=O)[C@@H]2C[C@@H](F)CN2C(=O)C2(C(F)(F)F)CC(F)(F)C2)C2CC2)CCCCCCCN(C)C(=O)[C@H](Cc2cc(Cl)ccc2-c2nnc(C3CC3)o2)N(C)C1=O [Example 240] ({cBuCO(3,3-F2-1-CF3)}-[Pro(trans-4-F)][Gly(cPr)][NMehhhLys(Me)]L[X111]; lactam 3-C) | 10 | 10 | 8730 | 140 | 20 |  |  |  |  | 20 |
| CC(=O)N1CCC(Oc2ccc(Cl)cc2C[C@H]2C(=O)N(C)CCCCCCC[C@H](N(C)C(=O)[C@@H](NC(=O)[C@@H]3C[C@@H](F)CN3C(=O)C3(C(F)(F)F)CC(F)(F)C3)C3CC3)C(=O)N[C@@H](CC(C)C)C(=O)N2C)CC1 [Example 243] ({cBuCO(3,3-F2-1-CF3)}-[Pro(trans-4-F)][Gly(cPr)][NMehhhLys(Me)]L[X99]; lactam 3-C) | 50 | 40 | 13300 | 690 | 20 | 50 |  |  |  |  |
| CC(C)C[C@@H]1NC(=O)[C@@H](N(C)C(=O)[C@@H](NC(=O)[C@@H]2C[C@@H](F)CN2C(=O)C2(C(F)(F)F)CC(F)(F)C2)C2CC2)CCCCCCCN(C)C(=O)[C@H](Cc2cc(Cl)ccc2-c2cnc3c(cnn3C)c2)N(C)C1=O [Example 250] ({cBuCO(3,3-F2-1-CF3)}-[Pro(trans-4-F)][Gly(cPr)][NMehhhLys(Me)]L[X16]; lactam 3-C) | 30 | 30 | 5550 | 1620 | 20 | 30 |  |  |  |  |
| CC(C)C[C@@H]1NC(=O)[C@@H](N(C)C(=O)[C@@H](NC(=O)[C@@H]2C[C@@H](F)CN2C(=O)C2(C(F)(F)F)CC(F)(F)C2)C2CC2)CCCCCCCN(C)C(=O)[C@H](Cc2cc(Cl)ccc2-c2ccc3c(c2)ncn3C)N(C)C1=O [Example 251] ({cBuCO(3,3-F2-1-CF3)}-[Pro(trans-4-F)][Gly(cPr)][NMehhhLys(Me)]L[X30]; lactam 3-C) | 10 | 10 | 13900 | 930 | 20 | 40 |  |  |  |  |
| CC(C)C[C@@H]1NC(=O)[C@@H](N(C)C(=O)[C@@H](NC(=O)[C@@H]2C[C@@H](F)CN2C(=O)C2(C(F)(F)F)CC(F)(F)C2)C2CC2)CCCCCCCN(C)C(=O)[C@H](Cc2cc(Cl)ccc2-c2cnn(C3CCS(=O)(=O)C3)c2)N(C)C1=O (stereo partly drawn) [Example 253] ({cBuCO(3,3-F2-1-CF3)}-[Pro(trans-4-F)][Gly(cPr)][NMehhhLys(Me)]L[X72]; lactam 3-C) | 40 | 20 | 9930 |  |  |  | 330 | 20 | 20 |  |
| CC(C)C[C@@H]1NC(=O)[C@@H](N(C)C(=O)[C@@H](NC(=O)[C@@H]2C[C@@H](F)CN2C(=O)C2(C(F)(F)F)CC(F)(F)C2)C2CC2)CCCCCCCN(C)C(=O)[C@H](Cc2cc(Cl)ccc2-c2cnn(C3CS(=O)(=O)C3)c2)N(C)C1=O [Example 255] ({cBuCO(3,3-F2-1-CF3)}-[Pro(trans-4-F)][Gly(cPr)][NMehhhLys(Me)]L[X101]; lactam 3-C) | 40 | 30 | 15800 |  |  |  | 210 | 20 | 20 |  |
| CC(C)C[C@@H]1NC(=O)[C@@H](N(C)C(=O)[C@@H](NC(=O)[C@@H]2C[C@@H](F)CN2C(=O)C2(C(F)(F)F)CC(F)(F)C2)C2CC2)CCCCCCCN(C)C(=O)[C@H](Cc2cc(Cl)ccc2-c2cnn(CCN3CCOCC3)c2)N(C)C1=O [Example 256] ({cBuCO(3,3-F2-1-CF3)}-[Pro(trans-4-F)][Gly(cPr)][NMehhhLys(Me)]L[X55]; lactam 3-C) | 10 | 10 | 13200 |  |  |  | 480 | 20 | 30 |  |
| CC(C)C[C@@H]1NC(=O)[C@@H](N(C)C(=O)[C@@H](NC(=O)[C@@H]2C[C@@H](F)CN2C(=O)C2(C(F)(F)F)CC(F)(F)C2)C2CC2)CCCCCCCN(C)C(=O)[C@H](Cc2cc(Cl)ccc2-c2cnn(CCS(C)(=O)=O)c2)N(C)C1=O [Example 257] ({cBuCO(3,3-F2-1-CF3)}-[Pro(trans-4-F)][Gly(cPr)][NMehhhLys(Me)]L[X13]; lactam 3-C) | 10 | 10 | 13300 |  |  |  | 120 | 20 | 20 |  |
| CC(C)C[C@@H]1NC(=O)[C@@H](N(C)C(=O)[C@@H](NC(=O)[C@@H]2C[C@@H](F)CN2C(=O)C2(C(F)(F)F)CC(F)(F)C2)C2CC2)C/C=C\CCCCN(C)C(=O)[C@H](Cc2cc(Cl)cnc2OC2CC2)N(C)C1=O [Example 258] | 70 | 70 | 14200 |  |  |  | 120 | 20 | 70 |  |
| CC(C)C[C@@H]1NC(=O)[C@@H](N(C)C(=O)[C@@H](NC(=O)[C@@H]2C[C@@H](F)CN2C(=O)C2(C(F)(F)F)CC(F)(F)C2)C2CC2)CCCCCCCN(C)C(=O)[C@H](Cc2cc(Cl)ccc2OC2(C)CC2)N(C)C1=O [Example 259] ({cBuCO(3,3-F2-1-CF3)}-[Pro(trans-4-F)][Gly(cPr)][NMehhhLys(Me)]L[X64]; lactam 3-C) | 110 | 110 | 10400 |  |  |  | 280 | 20 | 70 |  |
